Columns and labels:
[1] = tested on: LPS-induced TNF-α production in THP-1 cells; experiment: Inhibition of LPS-Induced TNF-α Production in THP-1 Cells (ELISA); format: cell-based; conditions: Homo sapiens; PMA-treated THP-1 cells, 1 μg/ml LPS, 6 hours, TNF-α by ELISA; read-out: IC50 (inhibition of TNF-α release)
Procedure: THP-1 cells were suspended in culture medium containing 50 ng/ml PMA (SIGMA), seeded into a 96-well tissue culture plate (IWAKI) at 1×10^5 cells/well (100 μl/well) and incubated as described above for approximately 48 hours. The medium was then aspirated, the wells washed twice in Phosphate Buffered Saline and 1 μg/ml LPS (SIGMA) in culture medium was added (200 μl/well).
Test compounds were reconstituted in DMSO (SIGMA) and then diluted with the culture medium such that the final DMSO concentration was 0.1%. Twenty microlitre aliquots of test solution or medium only with DMSO (solvent control) were added to triplicate wells immediately following LPS addition, and incubated for 6 hours as described above. Culture supernatants were collected and the amount of human TNF-α present was determined by ELISA (R&D Systems) performed according to the manufacturer's instructions.
The IC50 was defined as the concentration of the test compound corresponding to half maximal inhibition of the control activity by non-linear regression analysis of their inhibition curves.

p38 MAP kinase = p38 MAP kinase (Homo sapiens, UniProt Q16539); experiment: p38 MAP Kinase Assay (33P incorporation into myelin basic protein, filter plate); format: biochemical; conditions: MKK6-activated p38, MBP substrate, 50 minutes
p38 MAP kinase, sequence (Q16539 whole entry): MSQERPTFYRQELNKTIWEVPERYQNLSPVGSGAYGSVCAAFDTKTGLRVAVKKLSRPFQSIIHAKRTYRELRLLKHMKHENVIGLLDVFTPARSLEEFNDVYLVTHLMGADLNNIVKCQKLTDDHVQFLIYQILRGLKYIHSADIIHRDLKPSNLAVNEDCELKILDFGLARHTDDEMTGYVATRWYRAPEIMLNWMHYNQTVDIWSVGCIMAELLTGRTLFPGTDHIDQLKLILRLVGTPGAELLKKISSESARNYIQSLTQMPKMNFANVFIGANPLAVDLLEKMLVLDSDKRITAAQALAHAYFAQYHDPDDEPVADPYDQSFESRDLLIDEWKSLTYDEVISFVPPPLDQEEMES

Row | Structure (SMILES) | IC50 [1] [µM] | IC50 (p38 MAP kinase; Table 1) [µM] | IC50 (p38 MAP kinase; Table 2) [µM]
1 | O=C(Nc1ccc(Cl)c(COc2ccc(NCCO)nc2)c1)c1cc(F)cc(N2CCOCC2)c1 [Compound 76, N-{4-Chloro-3-[6-(2-hydroxy-ethylamino)-pyridin-3-yloxymethyl]-phenyl}-3-fluoro-5-morpholin-4-yl-benzamide] | 0.97 | < 2 | 
2 | O=C(Nc1ccc(Cl)c(COc2cnccn2)c1)c1cc(F)cc(N2CCOCC2)c1 [Compound 94, N-[4-Chloro-3-(pyrazin-2-yloxymethyl)-phenyl]-3-fluoro-5-morpholin-4-yl-benzamide] | 0.21 |  | < 2
3 | CC(C)(C)c1ccc(-n2nc(C3CC3)cc2NC(=O)Nc2ccc(F)c(COc3cnccn3)c2)cc1 [Compound 164, 1-[2-(4-tert-Butyl-phenyl)-5-cyclopropyl-2H-pyrazol-3-yl]-3-[4-fluoro-3-(pyrazin-2-yloxymethyl)-phenyl]-urea] |  |  | < 200
4 | O=C(Nc1ccc(F)c(COc2cnccn2)c1)Nc1cc(C2CCOCC2)nn1-c1ccc(F)cc1 [Compound 165, 1-[2-(4-Fluoro-phenyl)-5-(tetrahydro-pyran-4-yl)-2H-pyrazol-3-yl]-3-[4-fluoro-3-(pyrazin-2-yloxymethyl)-phenyl]-urea] |  |  | < 2
5 | Clc1cccc(Cl)c1COc1cnc(NC2CCOCC2)cn1 [Compound 166] |  |  | < 200
6 | CC(C)(C)C(=O)Nc1cnc(OCc2c(Cl)cccc2Cl)cn1 [Compound 167] |  |  | < 200
7 | CC1(C(=O)Nc2cnc(OCc3c(Cl)cccc3Cl)cn2)CC1 [Compound 168] |  |  | < 200
8 | CN1CCC(CC(=O)Nc2cnc(OCc3c(Cl)cccc3Cl)cn2)CC1 [Compound 169] |  |  | < 200
9 | CN1CCN(CC(=O)Nc2cnc(OCc3c(Cl)cccc3Cl)cn2)CC1 [Compound 170] |  |  | < 20
10 | O=C(CN1CCOCC1)Nc1cnc(OCc2c(Cl)cccc2Cl)cn1 [Compound 171] |  |  | < 200
11 | O=C(CN1CCCCC1)Nc1cnc(OCc2c(Cl)cccc2Cl)cn1 [Compound 172] |  |  | < 200
12 | O=C(CC1CCOCC1)Nc1cnc(OCc2c(Cl)cccc2Cl)cn1 [Compound 173] |  |  | < 200
13 | O=C(Cn1ccnc1)Nc1cnc(OCc2c(Cl)cccc2Cl)cn1 [Compound 174] |  |  | < 20
14 | O=C(Nc1cnc(OCc2c(Cl)cccc2Cl)cn1)N1CCOCC1 [Compound 175] |  |  | < 2
15 | CC(C)(CO)NC(=O)Nc1cnc(OCc2c(Cl)cccc2Cl)cn1 [Compound 176] |  |  | < 2
16 | CC(C)(CO)C(=O)Nc1cnc(OCc2c(Cl)cccc2Cl)cn1 [Compound 177] |  |  | < 200
